Laboratory results reported in patent US9644006B2, “Carrier peptides for cell delivery” (priority 2011, dated 2017).
Where two headings read alike, the source gives them in different places.

Tested on: Vero cells
Assay: Effect of cytoskeleton depolymerizing drugs on delivery peptide (DynPro) movement
Type: cell-based, African green monkey
[1] = Vero cells with 10 μM DynPro, Nocodazole 2.5 μM 30 min, LatrunculinA 0.1 μM

## C/C1=C\[C@H](C)C[C@H](C)OC(=O)C[C@H](c2ccc(O)cc2)NC(=O)[C@@H](Cc2c(Br)[nH]c3ccccc23)N(C)C(=O)[C@H](C)NC(=O)[C@@H](C)C1 [Jasplakinolide]
  effect of the drug on delivery peptide transport movement: did not inhibit this movement

## C/C1=C/C(=O)O[C@@H]2C[C@@H](CC[C@H](C)/C=C\C=C\CC1)O[C@@](O)([C@@H]1CSC(=O)N1)C2 [LatrunculinA]
[1]
  effect of the drug on delivery peptide transport movement: transport was preserved

## COC(=O)Nc1nc2ccc(C(=O)c3cccs3)cc2[nH]1 [Nocodazole]
[1]
  effect of the drug on delivery peptide transport movement: abolished
